Laboratory results published in ChEMBL document CHEMBL5528064, “Invention of MK-7845, a SARS-CoV-2 3CL Protease Inhibitor Employing a Novel Difluorinated Glutamine Mimic” (J Med Chem, 2024).
pIC50: −log10 of the molar value. Converted amounts (≈) assume the structure as drawn. The source made the active and inactive calls. No cut-off for these calls is given here.

Assays:
SARS-CoV-2 [1] = experiment: Antiviral activity against ancestral SARS-CoV-2 WA1/2020 infected in human A549-hACE2-TMPRSS2 cells assessed as inhibition of virus induced cytopathic effect incubated for 72 hrs by celltiter glo assay; format: functional, organism-based; conditions: Severe acute respiratory syndrome coronavirus 2, WA1/2020, A549-hACE2-TMPRSS2, 72 h
SARS-CoV-2 [2] = experiment: Antiviral activity against SARS-CoV-2 Delta B.1.617 AY-2 infected in human A549-hACE2-TMPRSS2 cells assessed as inhibition of virus induced cytopathic effect incubated for 72 hrs by celltiter glo assay; format: functional, organism-based; conditions: Severe acute respiratory syndrome coronavirus 2, Delta B.1.617 AY-2, A549-hACE2-TMPRSS2, 72 h
[3] = Volume of distribution at steady state in rat by measuring compound and its epimer at 3 mg/kg, po or 1 mg/kg, iv measured upto 24 hrs by LC-MS analysis; format: ADME, organism-based; conditions: in vivo
[4] = Volume of distribution at steady state in dog by measuring compound and its epimer at 3 mg/kg, po or 1 mg/kg, iv measured upto 24 hrs by LC-MS analysis; format: ADME, organism-based, Canis lupus familiaris; conditions: in vivo
[5] = Aqueous solubility of compound; format: physicochemical; conditions: buffer
[6] = Oral bioavailability in human; format: ADME, organism-based; conditions: in vivo
Cytochrome P450 2C8 = target: T1, Cytochrome P450 2C8 (Homo sapiens, UniProt P10632); experiment: Reversible inhibition of CYP2C8 in human liver microsomes using amodiaquine as substrate incubated for 5 mins in presence of NADPH-generating system by LC-MS/MS analysis; format: ADME, Microsome
T1 sequence (P10632 whole entry): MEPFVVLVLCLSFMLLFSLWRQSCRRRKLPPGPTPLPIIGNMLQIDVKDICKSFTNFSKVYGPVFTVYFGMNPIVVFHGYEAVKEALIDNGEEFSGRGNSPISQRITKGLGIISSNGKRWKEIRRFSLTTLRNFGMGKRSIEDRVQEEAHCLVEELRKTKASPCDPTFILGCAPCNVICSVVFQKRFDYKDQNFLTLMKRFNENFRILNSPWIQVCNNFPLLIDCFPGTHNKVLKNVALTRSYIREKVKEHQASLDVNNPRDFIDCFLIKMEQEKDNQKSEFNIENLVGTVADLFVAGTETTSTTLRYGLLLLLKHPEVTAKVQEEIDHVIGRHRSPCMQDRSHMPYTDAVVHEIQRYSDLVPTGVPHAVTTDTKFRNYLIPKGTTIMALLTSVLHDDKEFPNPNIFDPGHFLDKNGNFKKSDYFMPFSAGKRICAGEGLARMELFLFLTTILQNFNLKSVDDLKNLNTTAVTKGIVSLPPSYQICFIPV

Cytochrome P450 2D6 = Cytochrome P450 2D6 (Homo sapiens, UniProt P10635); experiment: Reversible inhibition of CYP2D6 in human liver microsomes using dextromethorphan as substrate incubated for 5 mins in presence of NADPH-generating system by LC-MS/MS analysis; format: ADME, Microsome
Sequence of Cytochrome P450 2D6 (P10635 whole entry): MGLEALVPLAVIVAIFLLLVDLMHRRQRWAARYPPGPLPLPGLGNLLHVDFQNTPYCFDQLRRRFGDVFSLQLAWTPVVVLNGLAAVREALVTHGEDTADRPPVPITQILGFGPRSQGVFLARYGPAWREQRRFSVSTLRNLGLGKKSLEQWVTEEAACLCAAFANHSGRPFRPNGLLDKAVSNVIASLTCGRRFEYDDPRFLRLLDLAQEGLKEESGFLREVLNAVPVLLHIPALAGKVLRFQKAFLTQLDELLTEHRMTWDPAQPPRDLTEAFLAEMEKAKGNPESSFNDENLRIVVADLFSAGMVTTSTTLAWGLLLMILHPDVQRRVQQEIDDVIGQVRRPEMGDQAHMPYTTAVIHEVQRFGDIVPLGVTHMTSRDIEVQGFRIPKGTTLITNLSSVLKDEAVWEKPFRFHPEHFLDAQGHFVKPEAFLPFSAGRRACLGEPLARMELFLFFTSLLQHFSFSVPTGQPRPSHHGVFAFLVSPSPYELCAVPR

Cytochrome P450 2B6 = target: T2, Cytochrome P450 2B6 (Homo sapiens, UniProt P20813); experiment: Reversible inhibition of CYP2B6 in human liver microsomes using bupropion as substrate incubated for 5 mins in presence of NADPH-generating system by LC-MS/MS analysis; format: ADME, Microsome
T2 sequence (P20813 whole entry): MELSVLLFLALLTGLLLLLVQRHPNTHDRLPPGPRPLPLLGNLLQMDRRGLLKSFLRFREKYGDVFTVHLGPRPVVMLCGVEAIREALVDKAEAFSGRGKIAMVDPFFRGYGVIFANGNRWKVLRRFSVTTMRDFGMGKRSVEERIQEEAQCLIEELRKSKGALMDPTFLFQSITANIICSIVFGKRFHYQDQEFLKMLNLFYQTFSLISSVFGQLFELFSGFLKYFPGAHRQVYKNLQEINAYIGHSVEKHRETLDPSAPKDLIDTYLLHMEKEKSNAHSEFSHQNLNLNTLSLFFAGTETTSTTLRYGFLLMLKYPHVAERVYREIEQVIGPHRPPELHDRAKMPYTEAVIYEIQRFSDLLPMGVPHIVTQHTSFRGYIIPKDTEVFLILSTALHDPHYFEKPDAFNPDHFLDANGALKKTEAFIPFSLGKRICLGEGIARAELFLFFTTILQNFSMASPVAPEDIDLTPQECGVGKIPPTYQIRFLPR

[7] = Plasma stability in rat assessed as epimerization at 1 uM measured upto 3 hrs by LC-MS/MS analysis; format: ADME, cell-free
[8] = Plasma protein binding in rat assessed as free fraction at 1 uM; format: ADME, cell-free
[9] = Plasma protein binding in dog assessed as unbound fraction at 1 uM; format: ADME, cell-free, Canis lupus familiaris
[10] = Plasma protein binding in monkey assessed as unbound fraction at 1 uM; format: ADME, cell-free, Macaca mulatta; conditions: rhesus monkey
SARS-CoV-2 [11] = experiment: Antiviral activity against SARS CoV-2 USA-WA1/2020 infected in po dosed B6.Cg-Tg(K18-ACE2)2Prlmn/J mouse assessed as reduction in viral load in lung administered orally twice daily and measured on day 4 post inoculation; format: functional, organism-based; conditions: Severe acute respiratory syndrome coronavirus 2, dose 100-500 mg/kg, time 4.0 day
SARS-CoV-2 [12] = experiment: Antiviral activity against SARS CoV-2 USA-WA1/2020 infected in B6.Cg-Tg(K18-ACE2)2Prlmn/J mouse assessed as protection against body weight loss at 100 to 500 mg/kg, po bid measured daily for 4 days post inoculation; format: functional, organism-based; conditions: Severe acute respiratory syndrome coronavirus 2, dose 100-500 mg/kg, time 4.0 day

Q: With `CNC(=O)C(=O)[C@H](CCC(C)(F)F)NC(=O)[C@@H]1[C@H]2CCC[C@H]2CN1C(=O)[C@@H](NC(=O)OC)C(C)(C)C` as the compound, how does the pIC50 (SARS-CoV-2 [1]) read?
A: 6.35

Q: And the pIC50 (SARS-CoV-2 [2])?
A: 6.45

Q: What about the Vdss [3] of the same compound?
A: 2.8 L/kg

Q: And the Vdss [4]?
A: 0.4 L/kg

Q: And the solubility [5]?
A: 4500 µg/mL (≈ 8.71 mM)

Q: What about the bioavailability [6] of the same compound?
A: 67%

Q: What about the pIC50 (Cytochrome P450 2C8) of the same compound?
A: < 3.70

Q: What about the pIC50 (Cytochrome P450 2D6) of the same compound?
A: < 3.70

Q: And the pIC50 (Cytochrome P450 2B6)?
A: 3.80

Q: What about the Stability [7] of the same compound?
A: Unstable

Q: What about the fraction unbound at 1 µM [8] of the same compound?
A: 0.1

Q: And the fraction unbound at 1 µM [9]?
A: 0.09

Q: And the fraction unbound at 1 µM [10]?
A: 0.5

Q: What about the Activity (SARS-CoV-2 [11]) of the same compound?
A: Dose-Dependent Effect

Q: And the Activity (SARS-CoV-2 [12])?
A: Active
